Among the data in US20230218632A1, “CYCLIC SULFONAMIDE DERIVATIVES AS TRAP1 MODULATORS AND USES THEREOF” (Amathus Therapeutics, Inc., priority 2020, published 2023) are EC50 and Emax values, retold here.

Each structure is given as a SMILES string.

The target in the assay is T1, TRAP1 enzyme (Homo sapiens, UniProt Q12931).
T1 sequence (Q12931 60-704): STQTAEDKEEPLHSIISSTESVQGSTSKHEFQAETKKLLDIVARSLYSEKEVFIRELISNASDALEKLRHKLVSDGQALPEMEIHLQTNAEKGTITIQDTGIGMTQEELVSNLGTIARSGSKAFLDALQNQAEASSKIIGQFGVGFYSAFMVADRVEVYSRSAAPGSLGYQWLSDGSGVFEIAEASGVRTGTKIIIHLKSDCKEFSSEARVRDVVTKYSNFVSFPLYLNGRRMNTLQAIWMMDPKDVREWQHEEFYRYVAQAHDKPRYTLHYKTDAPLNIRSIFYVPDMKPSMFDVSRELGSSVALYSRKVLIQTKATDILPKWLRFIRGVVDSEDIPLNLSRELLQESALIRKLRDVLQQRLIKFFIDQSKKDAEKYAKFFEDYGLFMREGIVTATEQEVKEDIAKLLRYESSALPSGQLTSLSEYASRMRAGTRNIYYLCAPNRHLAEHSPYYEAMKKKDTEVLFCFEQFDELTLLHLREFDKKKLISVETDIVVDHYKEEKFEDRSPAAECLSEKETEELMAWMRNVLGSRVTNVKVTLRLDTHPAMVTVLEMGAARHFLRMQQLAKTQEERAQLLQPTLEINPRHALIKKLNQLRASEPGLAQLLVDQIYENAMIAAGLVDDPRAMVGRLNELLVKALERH
Briefly: ADP Glo assay (ATPase activity of TRAP1). The format is biochemical. To be noted: for EC50: 150 nM Trap1, 20 µM ATP, concentration for half maximal activation, read-out: ADP GLO DRC: GeoMean EC50; for Emax: maximal percent activation, read-out: ADP GLO DRC: Mean Emax. How it is done: Potency of test compounds to modulate the ATPase activity of TRAP1 enzyme was evaluated using ADP Glo assay. The assay is based on quantification of the ADP generated from ATP in the ATPase reaction. The assay is performed in two steps; first, after the ATPase reaction, an equal volume of ADP-Glo™ Reagent is added to terminate the ATPase reaction and deplete the remaining ATP. Second, the Kinase Detection Reagent is added to simultaneously convert ADP to ATP and allow the newly synthesized ATP to be measured using a luciferase/luciferin reaction.
All the assays were carried out in a 384-well Proxiplate. The buffer used was 25 mM Pipes pH-7.5, 40 mM KCl, 0.05 mM MgCl2, 0.025 % BSA, 0.316 mM EGTA, 0.003% Empigen, 0.01% Igepal. 150 nM Trap1 enzyme was incubated with various concentrations of the test compound (0.79 µM - 100 µM) at 37° C. for 30 mins (except in blank wells). 20 µM ATP was added to each well to start the reaction. The plate was spun for 1 min at 1200 rpm and then incubated at 37° C. for 60 mins. 5 µl of ADP Glo reagent was added to all the wells and spun the plate for 1 min at 1200 rpm and kept it on a shaker at ambient temperature for 60 mins. 10 µl of kinase detection mix was added to all the wells and the plate was read for Luminescence at 495 nm. The amount of ADP released was estimated from ATP/ADP standard curve generated at the same experimental conditions. Emax (Maximal percent activation) and EC50 (concentration for half maximal activation ) were estimated by fitting the dose response data to a sigmoidal curve fitting equation using Graphpad Prism software V. 8.

On to `CN1CCc2scc(C(=O)Nc3ccc4c(c3)S(=O)(=O)N(c3ccc(C(F)(F)F)cc3)CCO4)c2C1` [Compound 2472], for which the concentration giving a half-maximal response (EC50) was in the range of 30 to 100 µM and the Emax lay within 150 to 200%.
Turning to `Cc1nn(C)cc1C(=O)Nc1ccc2c(c1)S(=O)(=O)N(c1ccc(C(F)(F)F)cc1)CCO2` [Compound 2219], the concentration giving a half-maximal response (EC50) lay within 30 to 100 µM and the Emax is greater than 200%.
In the case of `Cn1ccc(=O)cc1C(=O)Nc1ccc2c(c1)S(=O)(=O)N(c1ccc(C(F)(F)F)cc1)CCO2` [Compound 2516], the EC50 was in the range of 30 to 100 µM and the maximum response (Emax) was greater than 200%.
Take `O=C(Nc1ccc2c(c1)S(=O)(=O)N(c1ccc(C(F)(F)F)cc1)CCO2)c1cnn2c1CCC2` [Compound 2179]: the EC50 fell in the range of 20 to 30 µM and the Emax fell in the range of 150 to 200%.
On to `O=C(Nc1ccc2c(c1)S(=O)(=O)N(c1ccc(C(F)(F)F)cc1)CCO2)c1cncn1CCO` [Compound 2514], for which the EC50 lay within 20 to 30 µM and the maximum response (Emax) fell in the range of 129 to 149%.
`CN1CCCCC1C(=O)Nc1ccc2c(c1)S(=O)(=O)N(c1ccc(C(F)(F)F)cc1)CCO2` (stereo not shown) [Compound 2402]: the EC50 was in the range of 30 to 100 µM and the Emax is 150 to 200%.
As to `Cc1ncccc1C(=O)Nc1ccc2c(c1)S(=O)(=O)N(c1ccc(C(F)(F)F)cc1)CCO2` [Compound 2286], the concentration giving a half-maximal response (EC50) is 30 to 100 µM and the maximal effect (Emax) is greater than 200%.
On to `O=C(Nc1ccc2c(c1)S(=O)(=O)N(c1ccc(C(F)(F)F)cc1)CCO2)c1ncoc1C(F)(F)F` [Compound 2494], for which the concentration for a half-maximal effect (EC50) lay within 30 to 100 µM and the Emax lay within 129 to 149%.
Consider `O=C(Nc1ccc2c(c1)S(=O)(=O)N(c1ccc(C(F)(F)F)cc1)CCO2)c1cccnn1` [Compound 2224], for which the EC50 lay in the range of 30 to 100 µM and the Emax lay in the range of 150 to 200%.
Regarding `Cn1ccnc1C(=O)Nc1ccc2c(c1)S(=O)(=O)N(c1ccc(C(F)(F)F)cc1)CCO2` [Compound 2090, N-(1,1-Dioxido-2-(4-(Trifluoromethyl)Phenyl)-3,4-Dihydro-2H-Benzo[b][1,4,5]Oxathiazepin-8-yl)-1-Methyl-1H-Imidazole-2-Carboxamide], the EC50 was less than 20 µM and the Emax was in the range of 129 to 149%.
On the same counts, the results for `Cc1ocnc1C(=O)Nc1ccc2c(c1)S(=O)(=O)N(c1ccc(F)cc1)CCO2` [Compound 2375, N-(2-(4-fluorophenyl)-1,1-dioxido-3,4-dihydro-2H-benzo[b][1,4,5]oxathiazepin-8-yl)-5-methyloxazole-4-carboxamide] are 30 to 100 µM and 150 to 200%.
As to `COCc1oncc1C(=O)Nc1ccc2c(c1)S(=O)(=O)N(c1ccc(C(F)(F)F)cc1)CCO2` [Compound 2257], the 50% effective concentration (EC50) was in the range of 30 to 100 µM and the Emax is 150 to 200%.
As for `O=C(Nc1ccc2c(c1)S(=O)(=O)N(c1ccc(C(F)(F)F)cc1)CCO2)c1ccnc(CO)c1` [Compound 2290], the concentration giving a half-maximal response (EC50) lay in the range of 30 to 100 µM and the Emax was greater than 200%.
Regarding `Cn1cccc(C(=O)Nc2ccc3c(c2)S(=O)(=O)N(c2ccc(C(F)(F)F)cc2)CCO3)c1=O` [Compound 2268], the EC50 was less than 20 µM and the Emax was 150 to 200%.
Regarding `Cc1nnccc1C(=O)Nc1ccc2c(c1)S(=O)(=O)N(c1ccc(C(F)(F)F)cc1)CCO2` [Compound 2242], the EC50 was 30 to 100 µM and the maximum response (Emax) was greater than 200%.
For `Cc1ccncc1C(=O)Nc1ccc2c(c1)S(=O)(=O)N(c1ccc(C(F)(F)F)cc1)CCO2` [Compound 1212, N-(1,1-Dioxido-2-(4-(Trifluoromethyl)Phenyl)-3,4-Dihydro-2H-Benzo[b][1,4,5]Oxathiazepin-8-yl)-4-Methylnicotinamide], the half-maximal effective concentration (EC50) was 20 to 30 µM and the maximal effect (Emax) lay within 150 to 200%.
For `Cn1nncc1C(=O)Nc1ccc2c(c1)S(=O)(=O)N(c1ccc(C(F)(F)F)cc1)CCO2` [Compound 2226], the EC50 fell in the range of 30 to 100 µM and the Emax lay in the range of 150 to 200%.
On the same counts, the results for `CC(C)c1ncsc1C(=O)Nc1ccc2c(c1)S(=O)(=O)N(c1ccc(C(F)(F)F)cc1)CCO2` [Compound 2080, N-(1,1-Dioxido-2-(4-(Trifluoromethyl)Phenyl)-3,4-Dihydro-2H-Benzo[b][1,4,5]Oxathiazepin-8-yl)-4-Isopropylthiazole-5-Carboxamide] are 20 to 30 µM and 129 to 149%.
For `Cc1ocnc1C(=O)N(C)c1ccc2c(c1)S(=O)(=O)N(c1ccc(C(F)(F)F)cc1)CCO2` [Compound 2449] the same measures were 30 to 100 µM and 150 to 200%.
Take `CC(C)c1oncc1C(=O)Nc1ccc2c(c1)S(=O)(=O)N(c1ccc(C(F)(F)F)cc1)CCO2` [Compound 2202]: the concentration for a half-maximal effect (EC50) lay within 30 to 100 µM and the Emax was 150 to 200%.
On the same counts, the results for `COc1cc(N2CCOc3ccc(NC(=O)c4ncoc4C)cc3S2(=O)=O)ccc1C(F)(F)F` [Compound 2398] are less than 20 µM and 129 to 149%.
As to `COc1cnccc1C(=O)Nc1ccc2c(c1)S(=O)(=O)N(c1ccc(C(F)(F)F)cc1)CCO2` [Compound 2209], the concentration giving a half-maximal response (EC50) was in the range of 20 to 30 µM and the maximal effect (Emax) was 129 to 149%.
Take `O=C(Nc1ccc2c(c1)S(=O)(=O)N(c1ccc(C(F)(F)F)cc1)CCO2)c1cccnc1` [Compound 2240]: the EC50 was 30 to 100 µM and the maximal response (Emax) was 150 to 200%.
On to `COc1cccnc1C(=O)Nc1ccc2c(c1)S(=O)(=O)N(c1ccc(C(F)(F)F)cc1)CCO2` [Compound 2288], for which the EC50 was less than 20 µM and the Emax lay in the range of 150 to 200%.
As for `CN1CCCC1C(=O)Nc1ccc2c(c1)S(=O)(=O)N(c1ccc(C(F)(F)F)cc1)CCO2` (stereo not shown) [Compound 2417], the EC50 was 30 to 100 µM and the Emax is 150 to 200%.
For `Cc1ccc(C(=O)Nc2ccc3c(c2)S(=O)(=O)N(c2ccc(C(F)(F)F)cc2)CCO3)cn1` [Compound 2174] the same measures were 20 to 30 µM and 129 to 149%.
On the same counts, the results for `O=C(Nc1ccc2c(c1)S(=O)(=O)N(c1ccc(C(F)(F)F)cc1)CCO2)c1cnc(-c2ccccc2)[nH]1` [Compound 2423] are less than 20 µM and 129 to 149%.
As for `Cc1ncnc(C)c1C(=O)Nc1ccc2c(c1)S(=O)(=O)N(c1ccc(C(F)(F)F)cc1)CCO2` [Compound 2337], the concentration giving a half-maximal response (EC50) fell in the range of 30 to 100 µM and the Emax lay in the range of 150 to 200%.
Consider `Cc1oncc1C(=O)Nc1ccc2c(c1)S(=O)(=O)N(c1ccc(C(F)(F)F)cc1)CCO2` [Compound 2345], for which the EC50 lay within 30 to 100 µM and the Emax lay within 150 to 200%.
Regarding `O=C(Nc1ccc2c(c1)S(=O)(=O)N(c1ccc(C(F)(F)F)cc1)CCO2)c1cccc(CO)n1` [Compound 2291], the EC50 is less than 20 µM and the maximum response (Emax) was in the range of 150 to 200%.
As to `O=C(Nc1ccc2c(c1)S(=O)(=O)N(c1ccc(C(F)(F)F)cc1)CCO2)c1cocn1` [Compound 1976, N-(1,1-Dioxido-2-(4-(Trifluoromethyl)Phenyl)-3,4-Dihydro-2H-Benzo[b][1,4,5]Oxathiazepin-8-yl)Oxazole-4-Carboxamide], the 50% effective concentration (EC50) was in the range of 30 to 100 µM and the Emax was 150 to 200%.
For `CC(C)c1scnc1C(=O)Nc1ccc2c(c1)S(=O)(=O)N(c1ccc(C(F)(F)F)cc1)CCO2` [Compound 2085, N-(1,1-Dioxido-2-(4-(Trifluoromethyl)phenyl)-3,4-Dihydro-2H-Benzo[b][1,4,5]Oxathiazepin-8-yl)-5-Isopropylthiazole-4-Carboxamide] the same measures were 30 to 100 µM and 150 to 200%.
For the compound `Cc1cc(C(=O)Nc2ccc3c(c2)S(=O)(=O)N(c2ccc(C(F)(F)F)cc2)CCO3)n(C)n1` [Compound 2339], the concentration giving a half-maximal response (EC50) was less than 20 µM and the maximum response (Emax) lay within 129 to 149%.
Take `Cc1ncoc1C(=O)Nc1ccc2c(c1)S(=O)(=O)N(c1ccc(C(F)(F)F)cc1)CCC2` [Compound 2458]: the EC50 is less than 20 µM and the maximum response (Emax) is 129 to 149%.
On to `Cc1ocnc1C(=O)Nc1ccc2c(c1)S(=O)(=O)N(c1ccccc1)CCO2` [Compound 2135, N-(1,1-dioxido-2-phenyl-3,4-dihydro-2H-benzo[b][1,4,5]oxathiazepin-8-yl)-5-methyloxazole-4-carboxamide], for which the EC50 was 30 to 100 µM and the maximal response (Emax) is 150 to 200%.
